The target in one assay is T1, recombinant human TDP2 (Homo sapiens, UniProt O95551).
T1 sequence (O95551 1-362): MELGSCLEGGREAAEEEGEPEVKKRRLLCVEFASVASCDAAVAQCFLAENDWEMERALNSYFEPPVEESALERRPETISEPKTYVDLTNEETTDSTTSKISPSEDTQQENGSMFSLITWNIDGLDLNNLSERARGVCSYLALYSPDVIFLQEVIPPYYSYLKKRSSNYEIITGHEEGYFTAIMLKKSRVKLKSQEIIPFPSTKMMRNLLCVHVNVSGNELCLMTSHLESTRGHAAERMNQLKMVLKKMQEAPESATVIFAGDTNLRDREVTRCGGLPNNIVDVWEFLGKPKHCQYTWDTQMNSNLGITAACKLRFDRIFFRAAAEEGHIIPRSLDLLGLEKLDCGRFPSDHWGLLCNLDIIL
Briefly: Recombinant Tdp2 assay (gel-based, 18-mer ssDNA substrate). The assay is classed as biochemical. Conditions: recombinant human TDP2, 25 pM, 15 min, room temperature; read-out: REC TDP2. The procedure: TDP2 reactions were carried out as described previously (Example 52) with the following modifications. The 18-mer single-stranded oligonucleotide DNA substrate (α^32P-cordycepin-3′-labeled) was incubated at 1 nM with 25 pM recombinant human TDP2 in the absence or presence of inhibitor for 15 min at room temperature in a buffer containing 50 mM Tris-HCl, pH 7.5, 80 mM KCl, 5 mM MgCl2, 0.1 mM EDTA, 1 mM DTT, 40 μg/mL BSA, and 0.01% Tween 20. Reactions were terminated and treated similarly to WCE and recombinant TDP1 reactions (see Examples 52 and 53).
(§1) All compounds were prepared by the methods shown in Examples 1 to 50. Routine changes in starting materials and reaction conditions, readily apparent to those of skill in the art, were used to make the particular compounds disclosed in Table 1. […] A standard Tdp2 inhibition assay, such as the assay of Example 53, is used to determine the IC50's for the compounds. LC methods are given in the General Methods section.

The next assay concerns the target T2, human TDP2 (hTDP2) (Homo sapiens, UniProt O95551).
T2 construct: expressed in transfected cells; host or cells: DT40 (chicken) TDP1-/- knockout cells complemented with human TDP2; whole cell extract
T2 sequence (O95551 1-362): T1 sequence (O95551 1-362)
The experiment in a line: Whole cell extract Tdp2 assay (DT40 TDP1-/- cells complemented with human TDP2). Format: biochemical. As to conditions: whole cell extract 4 μg/mL of DT40 cells expressing hTDP2, 15 min, room temperature; read-out: WCE hTDP2. Here is the method:
DT40 knockout cells (1×10^7) for Tdp1 (TDP1−/−) complemented with human TDP2 (hTDP2) were collected, washed, and centrifuged. Cell pellets were then lysed and stored similarly to hTDP1 extracts (see above). The 18-mer single-stranded oligonucleotide was incubated at 1 nM with 4 μg/mL of whole cell extracts in the absence or presence of inhibitor for 15 min at room temperature in the WCE buffer containing 50 mM Tris HCl, pH 7.5, 80 mM KCl, 5 mM MgCl2, 2 mM EDTA, 1 mM DTT, 40 μg/mL BSA, and 0.01% Tween-20. Reactions were terminated by the addition of 1 volume of gel loading buffer [99.5% (v/v) formamide, 5 mM EDTA, 0.01% (w/v) xylene cyanol, and 0.01% (w/v) bromophenol blue]. Samples were then treated and run similarly to the hTDP1 whole cell extract (Example 51).
as §1

Molecules are shown by their SMILES.

On to `Cc1oc2c(c1C(=O)Oc1cccc(-c3cn(CCCO)nn3)c1)C(=O)c1ncccc1C2=O` [Compound 34], for which the IC50 on recombinant human TDP2 and on human TDP2 (hTDP2) was 1 to 12 µM in each case.

On to `Cc1oc2c(c1C(=O)OCCOCCO)C(=O)c1ncccc1C2=O` [Compound 36], for which the IC50 at recombinant human TDP2 and at human TDP2 (hTDP2) was 12 to 37 µM each time.

With `CCOC(=O)c1c(-c2ccccc2)oc2c1C(=O)c1ncccc1C2=O` [Compound 30, Ethyl 4,9-dioxo-2-phenyl-4,9-dihydrofuro[2,3-g]quinoline-3-carboxylate], the IC50 at recombinant human TDP2 and on human TDP2 (hTDP2) was 12 to 37 µM throughout.

Take `Cc1oc2c(c1C(=O)Oc1cccc(Cl)c1)C(=O)c1ncccc1C2=O` [Compound 23]: the values for the IC50 on recombinant human TDP2 and at human TDP2 (hTDP2) were 12 to 37 µM and 1 to 12 µM, respectively.

In the case of `Cc1oc2c(c1C(=O)Oc1cccnc1)C(=O)c1ncccc1C2=O` [Compound 28], the IC50 at recombinant human TDP2 and at human TDP2 (hTDP2) was 1 to 12 µM in each case.

Turning to `Cc1oc2c(c1C(=O)Oc1ccccc1Cl)C(=O)c1ncccc1C2=O` [Compound 24], the IC50 lay in the range of 1 to 12 µM at recombinant human TDP2 and 12 to 37 µM on human TDP2 (hTDP2).

Regarding `Cc1oc2c(c1C(=O)Oc1cccc(C#N)c1)C(=O)c1ncccc1C2=O` [Compound 26], the IC50 on recombinant human TDP2 and on human TDP2 (hTDP2) was 1 to 12 µM in each case.

Take `Cc1oc2c(c1C(=O)Oc1ccccc1OCCCN1CCOCC1)C(=O)c1ncccc1C2=O` [Compound 60]: the results for the IC50 at recombinant human TDP2 and at human TDP2 (hTDP2) were 37 to 111 µM and 1 to 12 µM, respectively.

As for `CCOC(=O)c1c(C(C)C)oc2c1C(=O)c1ncccc1C2=O` [Compound 64], the IC50 at recombinant human TDP2 was 12 to 37 µM; at human TDP2 (hTDP2), no more than 1 µM.

As to `CCOC(=O)c1c(CBr)oc2c1C(=O)c1ncccc1C2=O` [Compound 63], the IC50 was in the range of 12 to 37 µM on recombinant human TDP2 and 1 to 12 µM on human TDP2 (hTDP2).

For the compound `CCOC(=O)c1c(C)oc2c1C(=O)c1ncccc1C2=O` [Compound 2, Ethyl 2-methyl-4,9-dioxo-4,9-dihydrofuro[2,3-g]quinoline-3-carboxylate], the IC50 at recombinant human TDP2 was in the range of 1 to 12 µM; at human TDP2 (hTDP2), 12 to 37 µM.

For `CC(=O)c1c(C)oc2c1C(=O)c1ncccc1C2=O` [Compound 9, 3-acetyl-2-methylfuro[2,3-g]quinoline-4,9-dione], the IC50 on recombinant human TDP2 and on human TDP2 (hTDP2) was 37 to 111 µM in each case.

On to `Cc1oc2c(c1C(=O)Oc1ccccc1O)C(=O)c1ncccc1C2=O` [Compound 13], for which the results for the IC50 on recombinant human TDP2 and at human TDP2 (hTDP2) were 12 to 37 µM and 1 to 12 µM, respectively.

The values are drawn from patent US11999747B2, “Furoquinolinediones as inhibitors of TDP2” (THE UNITED STATES OF AMERICA, AS REPRESENTED BY THE …, priority 2015, dated 2024).
